Source: patent US6485924B2, “Method for identifying inhibitors of cytokinesis” (Boehringer Ingelheim International GmbH, priority 1999, dated 2002)

Legend:
XSepA [1] = target: T1, XSepA (Xenopus laevis, UniProt Q9DE33); assay: GTP filter binding assay; settings: for ability of cold nucleotide to compete with the radiolabeled guanine nucleotide: data not shown
T1 construct: made in house; host or cells: E. coli BL21(DE3)
T1 sequence (Q9DE33 1-356): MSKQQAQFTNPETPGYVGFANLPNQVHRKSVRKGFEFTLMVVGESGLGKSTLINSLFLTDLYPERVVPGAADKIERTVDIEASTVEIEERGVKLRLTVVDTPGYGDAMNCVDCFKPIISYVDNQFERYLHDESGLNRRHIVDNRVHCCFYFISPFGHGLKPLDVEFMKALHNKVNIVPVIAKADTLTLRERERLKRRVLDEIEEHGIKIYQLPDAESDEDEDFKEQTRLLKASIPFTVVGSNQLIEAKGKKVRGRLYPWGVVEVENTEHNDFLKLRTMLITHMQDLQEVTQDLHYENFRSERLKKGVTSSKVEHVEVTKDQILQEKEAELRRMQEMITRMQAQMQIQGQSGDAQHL
Method: For GTP binding, 1 μM of XSepA (or Δcc-SepA) in S-buffer was incubated with 0.1 mg/ml BSA, 5 mM MgCl2 and 4.4 μM ^3H-GTP (4.60 Ci/mmol, 1 mCi/ml; Amersham). At time intervals, aliquots of the reaction were diluted in cold wash buffer (20 mM Tris pH 8.0, 50 mM NaCl, 5 mM MgCl2) and filtered through pre-wetted nitrocellulose circles (Schleicher and Schuell) Filters were washed with 10 ml of wash buffer, dried, and the retained radioactivity quantified in a scintillation counter.
The ability of recombinant XSepA to bind guanine nucleotide was tested by using a filter binding assay. […] To assay for GTP hydrolysis, XSepA was incubated with limiting amounts of [α-^32P]GTP and the production of radioactive GDP was followed by thin layer chromatography. […] FIGS. 1C and 1D show time courses of GTP binding and hydrolysis by XSepA and Δcc-SepA. Recombinant protein (1 μM) was incubated with an excess of [^3H]GTP to quantify nucleotide binding, or with sub-stoichiometric amounts of [α-^32P]GTP to detect nucleotide hydrolysis. (C) GTP binding as determined by a filter-binding assay. (D) TLC plate showing generation of radioactive GDP from GTP. Aliquots of the reaction were quenched in a denaturing solution at the indicated time, and the nucleotide content was resolved by TLC. BSA (0.1 mg/ml) was used as a negative control in both experiments.)

XSepA [2] = target: T1, XSepA; assay: Filament assembly / polymerization followed by immunofluorescence microscopy; format: biochemical; settings: for filamentous structures observed: control nucleotide used instead of GTP, 30 minutes; for length of the lag phase of polymerization: 1 mg/ml XSepA, 0.1 mM nucleotide; for critical concentration for XSepA polymerization: 30 min incubation with nucleotide
Method: (§1) Polymerization reactions were carried out in S-buffer in the presence of 5 mM MgCl2 and GTP, GTP-γ-S, GDP or ATP (Gibco). Before nucleotide addition, all samples were pre-cleared in an ultracentrifuge (see below). Aliquots of the reaction were diluted to a final septin concentration of 3.3 μg/ml, and 100 μl drops spotted on glass coverslips for 1 min. Before use, coverslips were soaked with an acetone solution of 0.5% 3-aminopropyltriethoxy-silane (Sigma), washed in acetone and air-dried. Following sample application, the coverslips were washed with 2 ml S-buffer, fixed in cold methanol for 10 min and stained with a polyclonal rabbit antibody raised against an N-terminal peptide of XSepA (M. Glotzer and T. Hyman, in preparation). Secondary antibodies were DTAF-coupled anti-rabbit (Dianova). Images were acquired using a Zeiss Axioplan II microscope and Adobe Photoshop software. Processing and analysis of immunofluorescence images was performed on a Macintosh computer using the public domain NIH Image program (developed at the U.S. National Institutes of Health and available at http://rsb.info.nih.gov/nih-image). Thresholded binary images were generated, and particle length was obtained by measuring the major axis of the best fitting ellipse. Particles with length <0.4 μm were not included in the analysis. Although filaments tended to be straight, this procedure results in underestimation of the length of curved filaments. For sedimentation assays, 20 μl polymerization reactions containing 1 mg/ml septin were pre-cleared in an ultracentrifuge at 279000×g for 15 min at 4° C. Precleared samples were incubated with nucleotide at room temperature for 30 min and spun through a 50% glycerol cushion at 279000×g for 15 min at 25° C.
Filament forming proteins like actin, tubulin and FtsZ polymerize in a nucleotide-dependent fashion. To test whether septin filament assembly is regulated by a similar mechanism, XSepA was incubated with GTP (or its slowly hydrolyzable analogue GTP-γ-S) for 30 minutes and spotted onto glass coverslips. After the coverslips were fixed and stained with anti-XSepA antibody, filamentous structures of up to 7 μm in length were observed. […] FIGS. 2A and 2B depict the GTP-dependent assembly of XSepA and Δcc-SepA filaments. Top panels: Immunostainings of septin preparations (1 mg/ml) incubated with 0.1 mM of the indicated nucleotide for 30 min and diluted in S-buffer prior to fixation. Filamentous structures are observed with both full-length (A) and Δcc-SepA (B) only in the presence of GTP or GTP-γ-S. Bottom panels: Identical reactions were centrifuged through a 50% glycerol cushion at 279000×g for 15 min. Supernatants (S) and pellets (P) were collected and resolved by gel electrophoresis.
To gain insight into the polymerization mechanism of XSepA, the kinetics of the filament formation reaction was followed using immunofluorescence microscopy. At different times after GTP addition, aliquots of septin protein were processed for immunofluorescence as already described. For each time point, individual septin filaments were counted and their lengths measured. The length of all the filaments present in a field was added, and the result (proportional to the polymer mass) was plotted against time. Immunofluorescence images were acquired as described and the length of the filaments was measured (see Methods section). The relative polymer mass was obtained by adding the length of all the filaments present in a field. Each point represents data from four random fields. Only filaments of ≧400 nm in length were considered in the analysis. (A) Time course of filament assembly. At different times following nucleotide addition to 0.1 mM (t=0 min) aliquots of a reaction containing 1 mg/ml XSepA were diluted 300-fold and spotted on coverslips for 1 min before washing and fixation. (B) Determination of the critical concentration for polymerization. […]

XSepA [3] = target: T1, XSepA; assay: Filament sedimentation assay through glycerol cushion; format: biochemical; settings: 1 mg/ml septin, 0.1 mM nucleotide, 30 min, 279000×g
Method: as §1, with “Although filaments tended to be straight, this procedure results in underestimation of the length of curved filaments. For sedimentation assays, 20 μl polymerization reactions containing 1 mg/ml septin were pre-cleared in an ultracentrifuge at 279000×g for 15 min at 4° C. Precleared samples were incubated with nucleotide at room temperature for 30 min and spun through a 50% glycerol cushion at 279000×g for 15 min at 25° C.” left out

XSepA filaments = target: T2, XSepA filaments (Xenopus laevis, UniProt Q9DE33); assay: Dilution-induced filament depolymerization; format: biochemical; settings: 20 min after 600-fold dilution into buffer
T2 construct: made in house; host or cells: E. coli BL21(DE3)
T2 sequence (Q9DE33 1-356): T1 sequence (Q9DE33 1-356)
Method: To gain insight into the polymerization mechanism of XSepA, the kinetics of the filament formation reaction was followed using immunofluorescence microscopy. At different times after GTP addition, aliquots of septin protein were processed for immunofluorescence as already described. For each time point, individual septin filaments were counted and their lengths measured. The length of all the filaments present in a field was added, and the result (proportional to the polymer mass) was plotted against time. Immunofluorescence images were acquired as described and the length of the filaments was measured (see Methods section). The relative polymer mass was obtained by adding the length of all the filaments present in a field. Each point represents data from four random fields. Only filaments of ≧400 nm in length were considered in the analysis. (A) Time course of filament assembly. […] Polymer content was determined after 30 min incubation. […] In (B) and (C) a curve was fitted to the data points where filaments were detected.
To address the role of GTP hydrolysis in septin filament formation, the polymerization kinetics of XSepA in the presence of a slowly hydrolysable GTP analogue, GTP-γ-S, was studied. […] To investigate directly whether nucleotide hydrolysis promotes disassembly, filaments assembled with GTP or GTP-γ-S were diluted 600-fold into buffer and depolymerization rates were determined. […]

[4] = literature values; tubulin: pure, in glycerol buffer; cited from earlier work

Nc1ncnc2c1ncn2[C@@H]1O[C@H](COP(=O)(O)OP(=O)(O)OP(=O)(O)O)[C@@H](O)[C@H]1O [ATP]
ability of cold nucleotide to compete with the radiolabeled guanine nucleotide (XSepA [1]): not | filamentous structures observed (XSepA [2]): This was not the case

Nc1nc2c(ncn2[C@@H]2O[C@H](COP(=O)(O)OP(=O)(O)O)[C@@H](O)[C@H]2O)c(=O)[nH]1 [GDP]
ability of cold nucleotide to compete with the radiolabeled guanine nucleotide (XSepA [1]): not | filamentous structures observed (XSepA [2]): This was not the case

Nc1nc2c(ncn2[C@@H]2O[C@H](COP(=O)(O)OP(=O)(O)OP(=O)(O)O)[C@@H](O)[C@H]2O)c(=O)[nH]1 [GTP, guanosine triphosphate]
ability of cold nucleotide to compete with the radiolabeled guanine nucleotide (XSepA [1]): able to compete | GTP binding plateau (XSepA [1]; filter binding, excess [3H]GTP): 0.4-0.5 moles GTP/moles of XSepA | time to essentially complete maximum of nucleotide binding (XSepA [1]; limiting concentration of nucleotide, not shown): ≤ 5 min | length of the lag phase of polymerization (XSepA [2]): 5 min | critical concentration for XSepA polymerization (XSepA [2]): 0.5 mg/mL | sedimentable fraction of septin after incubation with nucleotide (XSepA [3]): increased significantly | depolymerization after dilution (XSepA filaments): essentially complete

Nc1nc2c(ncn2[C@@H]2O[C@H](COP(=O)(O)OP(=O)(O)OP(O)(O)=S)[C@@H](O)[C@H]2O)c(=O)[nH]1 [GTP-γ-S]
length of the lag phase of polymerization (XSepA [2]): 3 min | critical concentration for XSepA polymerization (XSepA [2]): 0.2 mg/mL | sedimentable fraction of septin after incubation with nucleotide (XSepA [3]): increased significantly | filaments still present (XSepA filaments): ca. 30 % of their initial level

actin
critical concentration for polymerization [4]: ~0.2 µM
